Read-outs that look alike come from different tables or passages of the source. No end group written: not given here.
How the values were obtained:
A. flavus = format: cell-based, Aspergillus flavus (KCTC 6905); conditions: 36 h
Excerpt: (§1) Aspergillus flavus (KCTC 6905), A. fumigatus (KCTC 6145), Fusarium moniliforme (KCTC 6149), F. oxysporum (KCTC 16909), C. albicans (KCTC 7270), C. krusei (CCARM 14017), C. parapsilosis (CCARM 14016), C. tropicalis (KCTC 7221), and T. beigelii (KCTC 7707) were obtained from the Korea Collection for Type Cultures (KCTC) and Culture Collection of Antimicrobial Resistant Microbes (CCARM). Mold and yeast fungi were pre-grown on potato dextrose (PD) and yeast extract peptone dextrose (YPD) agars, respectively.
(§2) Antifungal activity of peptides was performed by microtiter plate assays. Fungal conidia from four-day-old molds were collected using 0.08% Triton X-100 (v/v), and pre-cultivated yeast cells were adjusted to 2 × 10^4 spores/mL in 10 mM sodium phosphate buffer (SP, pH 7.2) or 10 mM 2-(N-morpholino)ethanesulfonic acid (MES) buffer (pH 5.5) supplemented with 20% culture medium, followed by addition to peptide solutions (0.25, 0.5, 1, 1.5, 2, 4, 6, 8, 12, 16, 32, 48, and 64 µM) in 96-well microtiter plates. After incubation for 36 h at 28 °C, the hyphal growth of conidia and the proliferation of yeast cells were observed under a light microscope. All assays were performed in triplicate. The MIC values were defined as the lowest concentration of samples that reduced fungal germination (for mold) or cell proliferation (for yeast) by more than 90% [34].

A. fumigatus = format: cell-based, A. fumigatus (KCTC 6145); conditions: 36 h
Excerpt: as §1, §2

F. oxysporum = format: cell-based, F. oxysporum (KCTC 16909); conditions: 36 h
Excerpt: as §1, §2

C. krusei = format: cell-based, C. krusei (CCARM 14017); conditions: 36 h
Excerpt: as §1, §2

C. parapsilosis = format: cell-based, C. parapsilosis (CCARM 14016); conditions: 36 h
Excerpt: as §1, §2

T. beigelii = format: cell-based, T. beigelii (KCTC 7707); conditions: 36 h
Excerpt: as §1, §2

[1] = Calcein leakage from fungus-mimic artificial vesicles; conditions: fungus-mimic PC/PE/PI/ergosterol vesicles, 20 μM lipid; peptide/lipid molar ratio 0.05; 100% = 0.03% Triton X-100; three independent experiments
Protocol: (§3) The permeability of peptides in calcein-entrapped artificial liposomes was assayed by measuring calcein leakage. The desired mixtures of lipids (PC/PE/PI/ergosterol, 5:4:1:2 and PC/CH/SM, 2:1:1, weight ratio) were dissolved in chloroform at 10 mg/mL, dried in a glass tube under nitrogen, and then lyophilized overnight to remove residual solvent. The dried lipid films were resuspended in 1 mL of dye solution (80 mM calcein, 10 mM HEPES buffer, pH 7.2) at 50 °C and vortexed, followed by freeze-thawing for nine cycles and extrusion with polycarbonate filters (0.2-μm pore-size) using an Avanti Mini-Extruder (Avanti Polar Lipids Inc., Alabaster, AL, USA). Free calcein was removed using PD-10 desalting columns (GE Healthcare Life Science, Seoul, Korea). Calcein-entrapped vesicles of 20 μM lipids were incubated with peptides at concentrations of […], 0.02, 0.05, and 0.1 molar ratio (peptide/lipid) and the fluorescence was assessed at 480 (Ex) and 520 (Em) nm using a microtiter SpectraMax M5 reader (Molecular Devices). Complete (100%) release was achieved by the addition of 0.03% Triton X-100 (v/v).

[2] = Calcein leakage from mammalian-mimic artificial vesicles; conditions: mammalian-mimic PC/CH/SM vesicles, 20 μM lipid; peptide/lipid molar ratio 0.1; 100% = 0.03% Triton X-100
Protocol: as §3

C. tropicalis = C. tropicalis skin infection mouse model; format: in vivo, BALB/C female mice
Protocol: All animal experiments and procedures were performed with the approval of the Institutional Animal Care and Use Committee (IACUC) of Sunchon National University, Korea (SCNU IACUC-2019-10). BALB/C female mice (six weeks old) were obtained from Koatech Co. (Pyongtaek, Gyeonggido, Korea) and divided into three groups (n = 4): control, pseudin-2, and P2-LZ4 groups. The skin on the back of each mouse was shaved 1 h before infection, and the mice were anesthetized by inhalation of 5% (induction) and 2% (maintenance) isoflurane in pure oxygen. Mice were then subjected to subcutaneous infection with 100 µL C. tropicalis (10^7 cells/mL) by injection into the dorsum of each mouse. At 24 h after infection, 100 µL PBS, pseudin-2 (0.1 mg/mL), or P2-LZ4 (0.1 mg/mL) was injected into the same site. At four days after peptide injection, mice were euthanized by CO2 inhalation, and the infected skin tissues were excised, fixed in 4% paraformaldehyde, embedded in paraffin, stained with H&E, and observed by light microscopy.

C. tropicalis cells [3] = assay: SYTOX Green uptake (membrane permeability); format: cell-based; conditions: SP buffer pH 7.2, 0.5 μM SYTOX Green, peptides 1-64 µM, monitored 30 min
Protocol: C. tropicalis cells pre-grown at 28 °C were washed and suspended (2 × 10^6 cells/mL) in SP buffer (pH 7.2). The cells were pre-incubated with SYTOX Green (final concentration of 0.5 μM) for 15 min in the dark, followed by adding two-fold serial dilutions of peptides at concentrations of 1 to 64 µM. The fluorescence intensity was monitored for 30 min at 485 (Ex) and 520 (Em) nm using a microtiter SpectraMax M5 reader (Molecular Devices, San Jose, CA, USA).

C. tropicalis cells [4] = assay: Mitochondrial superoxide, MitoSOX Red flow cytometry; format: cell-based; conditions: peptide at MIC for 8 h
Protocol: Mitochondrial SOX was measured using MitoSOX Red probe. C. tropicalis cells (2 × 10^4 spores/mL) were treated with samples at the appropriate MIC for 8 h and then stained with MitoSOX Red according to the manufacturer’s instructions. The stained cells were acquired by flow cytometry (Attune NxT Acoustic Focusing Cytometer; ThermoFisher Scientific Co., Eugene, OR, USA) at 561 nm by 10,000 total events.

GLNALKKVFQGIHEAIKLINNHVQ-NH2 [Pseudin-2]
MIC (A. flavus; pH 5.5): 16 µM
MIC (A. flavus; pH 7.2): 64 µM
MIC (A. fumigatus; pH 5.5): 24 µM
MIC (A. fumigatus; pH 7.2): 64 µM
MIC (F. oxysporum; pH 5.5): 16 µM
MIC (F. oxysporum; pH 7.2): 4 µM
MIC (C. krusei; pH 5.5): 8 (8) µM
MIC (C. krusei; pH 7.2): 8 (8) µM
MIC (C. parapsilosis; pH 5.5): >64 (>64) µM
MIC (C. parapsilosis; pH 7.2): >64 (>64) µM
MIC (T. beigelii; pH 5.5): 2 (2) µM
MIC (T. beigelii; pH 7.2): 2 (2) µM
leakage of calcein [1]: 80.1%
calcein efflux [2]: significant dye leakage
histological evaluation of skin tissues (H&E) (C. tropicalis; 100 µL of 0.1 mg/mL peptide s.c. 24 h after infection, tissues taken four days after peptide injection): able to recover from histological lesions
skin lesions (swelling and redness in the dorsal skin) (C. tropicalis; 100 µL of 0.1 mg/mL peptide s.c. 24 h after s.c. infection, monitored seven days, n = 4): reduced swelling and redness
SYTOX Green fluorescence intensity (C. tropicalis cells [3]): gradual, concentration-dependent increases in fluorescence intensity
MitoSOX Red fluorescence (mitochondrial SOX) (C. tropicalis cells [4]): a little right shift

Source: PMC7766124, “Improved Cell Selectivity of Pseudin-2 via Substitution in the Leucine-Zipper Motif: In Vitro and In Vivo Antifungal Activity” (Antibiotics, 2020)
